Assay results published in US20230092359A1, “GEMFIBROZIL FORMULATION” (Polaryx Therapeutics, Inc., priority 2020, published 2023).
Values after ≈ are worked out from the molar mass of the structure shown. Read-outs that look alike come from different tables or passages of the source.

Key:
[1] = Dynamic vapor sorption (DVS); assay type: physicochemical; set-up: key to Hysteresis: % change in weight (DVS sorption/desorption); details: for Hysteresis: in % (unit assumed); for state of post-DVS sample: after sorption/desorption cycle 5%-95%-5% relative humidity; for Desorp Mass Change: desorption; for gained moisture retained: following desorption from 95% to 5% relative humidity; for Sorp Mass Change: sorption
Text: In an embodiment, ethanolamine gemfibrozil salt Form A has a low hygroscopicity below approximately 55% relative humidity, meaning less than 0.5% increases in weight below approximately 55% relative humidity, which may be determined using dynamic vapor sorption (DVS) to detect changes in weight of the salt in response to changes in relative humidity. […] Table 6 lists the percent change in weight of ethanolamine gemfibrozil salt Form A (Sorp Mass Change (%)) in 10% relative humidity increments from its initial weight at 5% relative humidity to its weight at 95% relative humidity.
Dynamic Vapor Sorption (DVS)—Moisture sorption/desorption data were collected on a SMS Intrinsic Dynamic Vapor Sorption Analyzer. Sodium chloride and PVP were used as calibration standard. Samples were not dried prior to analysis. Sorption and desorption data were collected over a range from 5% to 95% relative humidity at 10% relative humidity increments under a nitrogen purge. The equilibrium criterion used for analysis was less than 0.0100% weight change in 5 minutes with a maximum equilibration time of 3 hours. Data were not corrected for the initial moisture content of the samples.

[2] = XRPD form check after humidity stress; assay type: physicochemical
Text: In an example, an L-arginine gemfibrozil salt was stressed for one day at 75% relative humidity.
The observed peaks of the post-DVS salt were consistent with the pattern of peaks observed for an L-lysine gemfibrozil salt Material A prepared prior to exposure to increased relative humidities (FIG. 15).
X-Ray Powder Diffraction (XRPD)—XRPD patterns were collected with a PANalytical X'Pert PRO MPD or PANalytical Empyrean diffractometers using an incident beam of Cu radiation produced using an Optix long, fine-focus source. An elliptically graded multilayer mirror was used to focus Cu Kα X-rays through the specimen and onto the detector. Prior to analysis, a silicon specimen (NIST SRM 640e) was analyzed to verify the observed position of the Si 111 peak is consistent with the NIST-certified position. A specimen of the sample was sandwiched between 3 μm thick films and analyzed in transmission geometry. A beam-stop, short antiscatter extension, and antiscatter knife edge were used to minimize the background generated by air. Soller slits for the incident and diffracted beams were used to minimize broadening from axial divergence. Diffraction patterns were collected using a scanning position-sensitive detector (X'Celerator) located […] from the specimen and Data Collector software v. 5.5.

[3] = equivalent to 100 mg free form in 250 ml pH 7.3 artificial saliva, 37° C., 50 RPM
Procedure: Dissolution experiments using the salt forms of gemfibrozil were performed using a VanKel VK7010 dissolution apparatus equipped with a VK750D heater/circulator. The 2 paddle method was used. Dissolution medium was 250 mL of artificial saliva, pH 7.30. The temperature was maintained at 37° C. The paddles were rotated at 50 RPM. […] Samples aliquots of 2 mL were taken at 5, 10, and 15 minutes and filtered immediately using a […] Nylon membrane syringe filter. Samples were analyzed by HPLC.

[4] = Thermogravimetric analysis (TGA); assay type: physicochemical
Procedure: Thermogravimetric Analysis (TGA)—TG analysis was performed using a Mettler-Toledo TGA/DSC3+ analyzer. Temperature and enthalpy adjustments were performed using indium, tin, and zinc, and then verified with indium. The balance was verified with calcium oxalate. The sample was placed in an open aluminum pan. The pan was hermetically sealed, the lid pierced, then inserted into the TG furnace. A weighed aluminum pan configured as the sample pan was placed on the reference platform. The furnace was heated under nitrogen. The data acquisition parameters for the thermogram are determined.

[5] = physchem; details: pH 7.3, fassgf or other biorelevant, thermodynamic from solid
[6] = Dissolution of free-form gemfibrozil in artificial saliva (USP <711> apparatus 2, HPLC); assay type: physicochemical; details: 4 hours; 600 mg in 900 mL pH 7.3 artificial saliva, 100 rpm, 37° C. (FIG. 1)
Procedure: USP <711> dissolution apparatus 2 (paddle method) was used. Dissolution medium was 900 mL of artificial saliva, pH 7.30. The temperature was maintained at 37° C. The paddles were rotated at 100 RPM. Six-hundred milligrams of gemfibrozil was added into each vessel at t=0. Samples aliquots of 2 mL were taken at 0.25, 0.5, 1, 2, 3, and 4 hours and filtered immediately using a 0.45 μm Nylon membrane syringe filter, whereby the filtrate was diluted at a 1:1 ratio with methanol and then vortexed. Samples were analyzed by HPLC.

[7] = cited from earlier work
[8] = sorption from 5% to 85% relative humidity
[9] = sorption from 85% to 95% relative humidity
[10] = equilibrium, 1.5 ml pH 7.3 artificial saliva, 16 hours

## Cc1ccc(C)c(OCCCC(C)(C)C(=O)O)c1.N=C(N)NCCCC(N)C(=O)O [Arginine Material A]
[1]; Target RH 15.0%
  Hysteresis: 6.09
  Desorp Mass Change: 6.12%
  Sorp Mass Change: 0.03%
[1]; Target RH 25.0%
  Hysteresis: 6.79
  Desorp Mass Change: 6.85%
  Sorp Mass Change: 0.06%
[1]; Target RH 35.0%
  Hysteresis: 7.73
  Desorp Mass Change: 7.89%
  Sorp Mass Change: 0.16%
[1]; Target RH 45.0%
  Hysteresis: 9.27
  Desorp Mass Change: 9.51%
  Sorp Mass Change: 0.25%
[1]; Target RH 55.0%
  Hysteresis: 11.46
  Desorp Mass Change: 11.75%
  Sorp Mass Change: 0.28%
[1]; Target RH 65.0%
  Hysteresis: 14.60
  Desorp Mass Change: 14.95%
  Sorp Mass Change: 0.35%
[1]; Target RH 75.0%
  Hysteresis: 18.97
  Desorp Mass Change: 19.47%
  Sorp Mass Change: 0.50%
[1]; Target RH 85.0%
  Hysteresis: 25.96
  Desorp Mass Change: 26.79%
  Sorp Mass Change: 0.83%
[1]
  state of post-DVS sample: deliquesced
  gained moisture retained: approximately 5.6%
[1]; Target RH 5.0%
  Desorp Mass Change: 5.55%
  Sorp Mass Change: 0.00%
[1]; Target RH 95.0%
  Desorp Mass Change: 45.96%
  Sorp Mass Change: 45.96%
[1]; [8]
  percent increase in mass: approximately 0.8%
[1]; [9]
  percent change in mass: 45.1%
[2]; stressed for one day at 75% relative humidity
  form change by XRPD: did not undergo a form change
[3]; 5 min
  Average % Gemfibrozil dissolved: 96.64%
[3]; 5 min, listed as L-arginine gemfibrozil salt Material A
  Average % Gemfibrozil dissolved: 96.6%
[3]; 10 min
  Average % Gemfibrozil dissolved: 94.40%
[3]; 15 min
  Average % Gemfibrozil dissolved: 94.27%
[10]
  Observations: No excess solids
[4]
  temperature until which weight does not decrease (may be the onset of decomposition): approximately 207 °C
[4]; between 44° C. and 125° C.
  weight loss: approximately 0.1%

## Cc1ccc(C)c(OCCCC(C)(C)C(=O)O)c1.NCCO [Ethanolamine Form A]
[1]; Target RH 15.0%
  Hysteresis: 2.60
  Desorp Mass Change: 2.60%
  Sorp Mass Change: 0.00%
[1]; Target RH 25.0%
  Hysteresis: 3.56
  Desorp Mass Change: 3.56%
  Sorp Mass Change: 0.00%
[1]; Target RH 35.0%
  Hysteresis: 4.87
  Desorp Mass Change: 4.88%
  Sorp Mass Change: 0.01%
[1]; Target RH 45.0%
  Hysteresis: 6.67
  Desorp Mass Change: 6.70%
  Sorp Mass Change: 0.03%
[1]; Target RH 55.0%
  Hysteresis: 9.19
  Desorp Mass Change: 9.29%
  Sorp Mass Change: 0.10%
[1]; Target RH 65.0%
  Hysteresis: 1.78
  Desorp Mass Change: 12.93%
  Sorp Mass Change: 11.14%
[1]; Target RH 75.0%
  Hysteresis: 0.64
  Desorp Mass Change: 18.56%
  Sorp Mass Change: 17.93%
[1]; Target RH 85.0%
  Hysteresis: 4.16
  Desorp Mass Change: 31.49%
  Sorp Mass Change: 27.33%
[1]
  state of post-DVS sample: deliquesced
  gained moisture retained: approximately 2%
[1]; Target RH 5.0%
  Desorp Mass Change: 1.92%
  Sorp Mass Change: 0.00%
[1]; Target RH 95.0%
  Desorp Mass Change: 45.05%
  Sorp Mass Change: 45.05%
[1]; sorption from 5% to 55% relative humidity
  percent increase in mass: approximately 0.1%
[1]; sorption from 55% to 95% relative humidity
  percent change in mass: 44.9%
[3]; 5 min
  Average % Gemfibrozil dissolved: 97.30%
[3]; 5 min, listed as ethanolamine gemfibrozil salt Form A
  Average % Gemfibrozil dissolved: 97.3%
[3]; 10 min
  Average % Gemfibrozil dissolved: 94.80%
[3]; 15 min
  Average % Gemfibrozil dissolved: 95.84%
pH 7.3
  Observations: No excess solids
[4]
  temperature until which weight does not decrease (may be the onset of decomposition): approximately 140 °C

## Cc1ccc(C)c(OCCCC(C)(C)C(=O)O)c1 [Free Form, 5-(2,5-dimethylphenoxy)-2,2-dimethyl-pentanoic acid]
[5]
  solubility: < 1100 µg/mL
[6]
  average % of free-form gemfibrozil dissolved: 78%
[7]; in DMSO
  solubility: ~16000 µg/mL (≈ 63.9 mM)
[7]; in a 1:1 solution of ethanol:PBS
  solubility: approximately 0.5 mg/mL
[7]; in ethanol
  solubility: approximately 30 mg/ml
[7]; in water
  solubility: approximately 0.03 mg/ml

## Cc1ccc(C)c(OCCCC(C)(C)C(=O)O)c1.NCCCCC(N)C(=O)O [Lysine Material A]
[1]; Target RH 15.0%
  Hysteresis: 2.48
  Desorp Mass Change: 2.53%
  Sorp Mass Change: 0.04%
[1]; Target RH 25.0%
  Hysteresis: 3.61
  Desorp Mass Change: 2.81%
  Sorp Mass Change: 0.19%
[1]; Target RH 35.0%
  Hysteresis: 2.69
  Desorp Mass Change: 3.09%
  Sorp Mass Change: 0.40%
[1]; Target RH 45.0%
  Hysteresis: 2.54
  Desorp Mass Change: 3.45%
  Sorp Mass Change: 0.91%
[1]; Target RH 55.0%
  Hysteresis: 2.30
  Desorp Mass Change: 4.09%
  Sorp Mass Change: 1.79%
[1]; Target RH 65.0%
  Hysteresis: 2.09
  Desorp Mass Change: 5.25%
  Sorp Mass Change: 3.15%
[1]; Target RH 75.0%
  Hysteresis: 3.16
  Desorp Mass Change: 9.49%
  Sorp Mass Change: 6.32%
[1]; Target RH 85.0%
  Hysteresis: 13.47
  Desorp Mass Change: 27.95%
  Sorp Mass Change: 14.48%
[1]
  state of post-DVS sample: deliquesced
  gained moisture retained: approximately 2.1%
[1]; Target RH 5.0%
  Desorp Mass Change: 2.09%
  Sorp Mass Change: 0.00%
[1]; Target RH 95.0%
  Desorp Mass Change: 38.97%
  Sorp Mass Change: 38.97%
[1]; sorption from 5% to 25% relative humidity
  percent increase in mass: approximately 0.2%
[1]; [8]
  percent increase in mass: approximately 14.5%
[1]; [9]
  percent change in mass: approximately 24.5%
[2]; post-DVS sample, exposure to increased relative humidity
  form change by XRPD: did not undergo a form change
[3]; 5 min
  Average % Gemfibrozil dissolved: 96.29%
[3]; 5 min, listed as L-lysine gemfibrozil salt Material A
  Average % Gemfibrozil dissolved: 96.3%
[3]; 10 min
  Average % Gemfibrozil dissolved: 93.51%
[3]; 15 min
  Average % Gemfibrozil dissolved: 94.67%
[10]
  Observations: No excess solids
[4]
  temperature until which weight does not decrease (may be the onset of decomposition): approximately 165 °C
